The assay has as its system mice submitted to DSS-induced colitis. In words: DSS-induced colitis model in mice. In kind it is in vivo, mouse (C57BL/6JRj). Conditions: for protection against DSS-induced colitis (body weight loss, DAI, colon length, histological score): FIG. 2, oral administration, n=16-20 mice per group; for protection from colitis: intraperitoneal injection, FIG. 3, n=10 mice per group; for colonic expression of pro-inflammatory cytokines such as IL-1 or IL-17: oral treatment, measured by Nanostring technology, data not shown; for colon length / histological score: day twelve. As to the method:
C57BL/6JRj from Janvier lab, 7 weeks old, were housed in our specific pathogen free animal facility at IERP (INRA, Jouy en Josas, France). Five to ten female mice per group were used in all experiment, were maintained in a temperature controlled (23° C.) facility with a strict 12 h light/dark cycles and were given free access to food and water. After one acclimation week, we changed water with DSS 2% (MP Biomedical) during 7 days (day 0 to day 7), and a
recovery period was practiced until day 12 (during 5 days). Body weight loss and DAI (disease activity index) were performed daily. After 12 days the samples were harvested.
Colon distal part (cut in three parts) was harvested at day 12 after DSS model and put directly in PFA (Rothi®—Histofix 4%) during 48 h and transferred in ethanol 70% until the standard pre-fixation automat and paraffin embedded. HES coloration was practiced on 5Im cut.
Data were analyzed using Prism version 7 (Graphpad Software, San Diego, USA). The non-parametric Mann Withney test or the parametric one-way ANOVA tests with multiple Bonferroni's comparison tests were performed. Values are expressed as mean±SEM. Statistical significance was defined at a p-value ****<0.0001, ***<0.001, **<0.01, *<0.05.

Setting [1] is: oral, each day, 8 mg of KYNA / 6 mg of XANA per mouse.
Where [2] appears, read: oral, each day, 8 mg of KYNA / 6 mg of XANA per mouse, measured daily, DSS 2%.

With `O=C(O)c1cc(=O)c2ccccc2[nH]1` [KYNA, kynurenic acid, reference compound], the “protection against DSS-induced colitis (body weight loss, DAI, colon length, histological score)” value is “protect against DSS-induced colitis”; the protection from colitis entry is on record as “induces protection similar to that observed when these metabolites are given orally”; the “colonic expression of pro-inflammatory cytokines such as IL-1 or IL-17” value is reported as “reduced”. In addition, under setting [1], the colon length entry is given as “longer” and the histological score entry is listed as “lower”. Besides, under setting [2], the “activity index of colitis (DAI)” value is listed as “anti-inflammatory effect” and the weight loss result was “anti-inflammatory effect”.

Consider `O=C(O)c1cc(O)c2cccc(O)c2n1` [XANA, xanthurenic acid], for which the “protection against DSS-induced colitis (body weight loss, DAI, colon length, histological score)” value is “protect against DSS-induced colitis”; the protection from colitis entry was “induces protection similar to that observed when these metabolites are given orally”; the “colonic expression of pro-inflammatory cytokines such as IL-1 or IL-17” value was “reduced”. Also, under setting [1], the colon length entry is on record as “longer” and the histological score result is on record as “lower”. For the same compound, the weight loss entry under setting [2] is reported as “anti-inflammatory effect”.

(Values after US20240408183A1, “KYNURENINE AMINOTRANSFERASE AND PRODUCTS THEREOF FOR THE TREATMENT OF INFLAMMATORY BOWEL DISEASES” (Institut National De Recherche Pour L'Agriculture, …, priority 2021, published 2024).)
